Measured values reported in ChEMBL document CHEMBL1201862, “PubChem BioAssay data set” (2004).
Active and inactive are the calls of the source.

Tests used:
[1] = glucagon-like peptide-1 release potency in STC-1, concentration-response, half-maximal inhibitory concentration in the STC-1 line (AID 1117345); type: functional, cell-based
[2] = Potency on glucagon-like peptide 1 release, dose-response in NCI-H716 cell line, half maximal inhibitory concentration (AID 1117344); type: functional, cell-based
[3] = target: G-protein coupled receptor 183 (Homo sapiens, UniProt P32249); test: SAR confirmation of small molecule antagonists of the EBI2 receptor via a luminescent beta-arrestin assa.; type: functional
Chain of G-protein coupled receptor 183 (P32249 whole entry): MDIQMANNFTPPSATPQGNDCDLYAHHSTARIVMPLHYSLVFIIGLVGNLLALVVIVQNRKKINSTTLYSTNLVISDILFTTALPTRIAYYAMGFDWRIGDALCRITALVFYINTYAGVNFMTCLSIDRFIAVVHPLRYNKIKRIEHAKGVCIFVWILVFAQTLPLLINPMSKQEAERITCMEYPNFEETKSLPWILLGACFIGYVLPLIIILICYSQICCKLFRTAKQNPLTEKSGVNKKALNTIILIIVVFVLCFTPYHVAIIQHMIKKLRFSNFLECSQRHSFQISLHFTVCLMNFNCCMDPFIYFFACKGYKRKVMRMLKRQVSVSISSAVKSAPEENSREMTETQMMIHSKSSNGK

[4] = P. falciparum Dd2 growth inhibitors, dose response, SYBR Green, cherry-picked samples (AID 1159567); type: functional, cell-based
[5] = Dd2 malaria parasite growth inhibition potency – SYBR Green, dry powder samples, dose response (AID 1159566); type: functional, cell-based;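 note: potency for growth inhibition with lower SYBR green DNA signal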
[6] = growth inhibition of yeast DHODH-expressing 3D7 parasites – SYBR Green, dry powder samples, dose response (AID 1159570); type: functional, cell-based;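 note: parasite growth measured after 72 hours of compound exposure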
[7] = growth inhibition of PfATP4-mutant resistant parasites – NITD609-resistant line, SYBR Green, dry powder, dose response (AID 1159571); type: functional, cell-based;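 note: parasites synchronized at ring stage by sorbitol before testing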
[8] = antimalarial activity against Dd2 parasites – SYBR Green fluorescence, erythrocytes, dry powder, set 2, dose response (AID 1159574); type: functional, cell-based
[9] = target: T1, Nuclear receptor subfamily 0 group B member 1 (Homo sapiens, UniProt P51843); test: Luminescence-based cell-based high throughput dose response assay for inhibitors of the orphan nuclear receptor subfamily 0, group B, member 1 (DAX1; NR0B1). [Related pubchem assays (depositor defined):AID504766, AID504790]; type: functional
T1 sequence (P51843 whole entry): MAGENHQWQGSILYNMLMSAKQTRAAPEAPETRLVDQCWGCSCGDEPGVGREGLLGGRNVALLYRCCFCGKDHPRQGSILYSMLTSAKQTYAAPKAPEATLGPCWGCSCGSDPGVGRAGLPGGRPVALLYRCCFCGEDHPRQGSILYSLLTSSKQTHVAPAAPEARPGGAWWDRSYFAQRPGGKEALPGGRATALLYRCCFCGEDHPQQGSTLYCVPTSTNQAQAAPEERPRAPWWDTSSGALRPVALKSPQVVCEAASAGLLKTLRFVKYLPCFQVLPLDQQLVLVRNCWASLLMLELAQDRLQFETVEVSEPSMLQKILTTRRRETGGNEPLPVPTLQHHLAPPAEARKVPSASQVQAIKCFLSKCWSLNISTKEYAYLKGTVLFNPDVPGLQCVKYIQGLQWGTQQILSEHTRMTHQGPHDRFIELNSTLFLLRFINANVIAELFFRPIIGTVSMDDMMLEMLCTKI

HEK293 = test: cells; type: functional, cell-based; conditions: Homo sapiens
[10] = target: T2, DNA repair and recombination protein RAD54-like (Homo sapiens, UniProt Q92698); test: RAD54 Holliday junction migration blockers – biochemical, fluorescence, cherry-picked samples, dose series, confirmation (AID 651657); type: functional
T2 sequence (Q92698 whole entry): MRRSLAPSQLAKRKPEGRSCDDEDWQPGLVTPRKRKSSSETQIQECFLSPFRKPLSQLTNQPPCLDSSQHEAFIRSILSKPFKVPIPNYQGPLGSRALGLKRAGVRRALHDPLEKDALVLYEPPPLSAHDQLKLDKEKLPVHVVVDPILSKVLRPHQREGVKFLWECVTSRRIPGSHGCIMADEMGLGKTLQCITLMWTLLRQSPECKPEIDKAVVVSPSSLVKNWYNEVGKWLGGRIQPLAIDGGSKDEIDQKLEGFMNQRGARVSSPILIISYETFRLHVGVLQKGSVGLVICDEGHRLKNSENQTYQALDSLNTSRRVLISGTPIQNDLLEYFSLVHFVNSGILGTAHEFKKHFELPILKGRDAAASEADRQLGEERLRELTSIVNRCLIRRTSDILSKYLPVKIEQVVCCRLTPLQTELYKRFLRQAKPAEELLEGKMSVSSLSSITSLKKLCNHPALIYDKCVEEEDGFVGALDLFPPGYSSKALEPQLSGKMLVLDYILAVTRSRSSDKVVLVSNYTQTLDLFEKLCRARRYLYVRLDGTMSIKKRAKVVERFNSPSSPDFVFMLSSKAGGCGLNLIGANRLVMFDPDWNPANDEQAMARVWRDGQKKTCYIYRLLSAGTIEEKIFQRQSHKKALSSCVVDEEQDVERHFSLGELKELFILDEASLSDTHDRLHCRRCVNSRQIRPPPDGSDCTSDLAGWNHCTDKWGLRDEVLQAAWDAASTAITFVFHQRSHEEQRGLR

[11] = target: T3, DNA repair protein RAD52 homolog (Homo sapiens, UniProt P43351); type: functional, biochemical
T3 sequence (P43351 whole entry): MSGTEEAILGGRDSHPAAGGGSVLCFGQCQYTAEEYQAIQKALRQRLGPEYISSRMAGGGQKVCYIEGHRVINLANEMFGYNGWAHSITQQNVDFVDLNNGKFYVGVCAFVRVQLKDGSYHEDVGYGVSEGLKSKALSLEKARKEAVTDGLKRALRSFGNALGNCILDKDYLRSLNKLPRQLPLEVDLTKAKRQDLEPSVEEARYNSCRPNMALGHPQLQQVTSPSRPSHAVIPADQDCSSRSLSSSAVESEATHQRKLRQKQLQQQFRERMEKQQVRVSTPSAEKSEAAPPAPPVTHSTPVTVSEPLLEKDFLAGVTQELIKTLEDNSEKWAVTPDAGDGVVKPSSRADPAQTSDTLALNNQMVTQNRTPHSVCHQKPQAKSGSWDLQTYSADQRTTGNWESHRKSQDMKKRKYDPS

[12] = target: E3 ubiquitin-protein ligase UHRF1 (Homo sapiens, UniProt Q96T88); test: Counterscreen for inhibitors of 5-meCpG-binding domain protein 2 (MBD2): TRFRET-based biochemical high throughput dose response assay to identify inhibitors of binding of ubiquitin-like with PHD and ring finger domains 1 (UHRF1) to methylated oligonucleotide.
Chain of E3 ubiquitin-protein ligase UHRF1 (Q96T88 whole entry, the tested form may be a part): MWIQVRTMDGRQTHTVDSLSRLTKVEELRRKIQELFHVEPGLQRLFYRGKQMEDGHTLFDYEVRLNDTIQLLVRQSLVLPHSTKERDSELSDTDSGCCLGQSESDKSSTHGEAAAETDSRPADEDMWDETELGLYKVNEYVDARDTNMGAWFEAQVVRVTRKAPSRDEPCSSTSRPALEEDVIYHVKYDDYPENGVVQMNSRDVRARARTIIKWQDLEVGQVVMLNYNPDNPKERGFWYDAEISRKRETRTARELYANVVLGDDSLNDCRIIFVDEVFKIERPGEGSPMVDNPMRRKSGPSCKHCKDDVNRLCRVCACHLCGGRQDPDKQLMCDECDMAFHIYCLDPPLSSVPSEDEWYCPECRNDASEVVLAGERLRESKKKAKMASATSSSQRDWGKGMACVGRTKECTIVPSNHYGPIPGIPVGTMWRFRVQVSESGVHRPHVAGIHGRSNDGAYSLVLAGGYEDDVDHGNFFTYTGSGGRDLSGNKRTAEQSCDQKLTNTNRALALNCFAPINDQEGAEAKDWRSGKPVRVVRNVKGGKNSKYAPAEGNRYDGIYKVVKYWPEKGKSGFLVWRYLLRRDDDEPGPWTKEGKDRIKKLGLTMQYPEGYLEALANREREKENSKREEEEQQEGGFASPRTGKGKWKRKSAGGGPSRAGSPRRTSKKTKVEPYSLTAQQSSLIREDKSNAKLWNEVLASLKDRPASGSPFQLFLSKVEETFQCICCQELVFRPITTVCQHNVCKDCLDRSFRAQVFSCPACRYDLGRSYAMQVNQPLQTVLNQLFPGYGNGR

Vero = test: mammalian cell viability reduction – secondary assay, cytotoxicity control for West Nile virus antiviral project, dose response (AID 1650); type: functional; conditions: Chlorocebus sabaeus
[13] = target: Induced myeloid leukemia cell differentiation protein Mcl-1 (Homo sapiens, UniProt Q07820); type: functional
Chain of Induced myeloid leukemia cell differentiation protein Mcl-1 (Q07820 whole entry): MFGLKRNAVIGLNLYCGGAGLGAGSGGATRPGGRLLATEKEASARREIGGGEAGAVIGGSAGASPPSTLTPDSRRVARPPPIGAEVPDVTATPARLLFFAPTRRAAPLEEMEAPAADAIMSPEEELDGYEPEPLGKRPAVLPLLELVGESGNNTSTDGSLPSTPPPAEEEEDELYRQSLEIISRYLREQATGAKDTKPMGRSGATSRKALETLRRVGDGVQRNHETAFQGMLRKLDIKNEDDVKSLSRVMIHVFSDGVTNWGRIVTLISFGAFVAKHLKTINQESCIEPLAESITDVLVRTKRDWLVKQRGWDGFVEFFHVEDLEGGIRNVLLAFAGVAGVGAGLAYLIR

[14] = IC50 of Artemis nuclease activity blockers – biochemical, fluorescence intensity, dose response (AID 720701); type: functional;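 note: Artemis endonuclease enzyme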
[15] = target: Glutathione-S-transferase (Schistosoma japonicum, UniProt Q26513); test: GST-antibody interaction or FRET quenching – biochemical, TR-FRET, artefact control for Vif-APOBEC3G degradation inhibitor project, dose response (AID 1117362); type: functional
Chain of Glutathione-S-transferase (Q26513 whole entry): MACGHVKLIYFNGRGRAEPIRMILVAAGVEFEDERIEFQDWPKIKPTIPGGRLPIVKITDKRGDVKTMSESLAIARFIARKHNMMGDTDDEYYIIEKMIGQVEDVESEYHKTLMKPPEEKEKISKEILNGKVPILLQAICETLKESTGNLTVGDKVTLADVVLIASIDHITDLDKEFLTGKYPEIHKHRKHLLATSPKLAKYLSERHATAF

[16] = target: T4, Polyadenylate-binding protein 1 (Homo sapiens, UniProt P11940); test: MLLE binding blockers, Cy5 peptide tracer – biochemical, fluorescence polarization, Cy5-PAM2 peptide, secondary, miRNA deadenylation inhibitor project, dose response (AID 602260); type: functional; conditions: read-out: IC50_Mean
T4 sequence (P11940 whole entry, the tested form may be a part): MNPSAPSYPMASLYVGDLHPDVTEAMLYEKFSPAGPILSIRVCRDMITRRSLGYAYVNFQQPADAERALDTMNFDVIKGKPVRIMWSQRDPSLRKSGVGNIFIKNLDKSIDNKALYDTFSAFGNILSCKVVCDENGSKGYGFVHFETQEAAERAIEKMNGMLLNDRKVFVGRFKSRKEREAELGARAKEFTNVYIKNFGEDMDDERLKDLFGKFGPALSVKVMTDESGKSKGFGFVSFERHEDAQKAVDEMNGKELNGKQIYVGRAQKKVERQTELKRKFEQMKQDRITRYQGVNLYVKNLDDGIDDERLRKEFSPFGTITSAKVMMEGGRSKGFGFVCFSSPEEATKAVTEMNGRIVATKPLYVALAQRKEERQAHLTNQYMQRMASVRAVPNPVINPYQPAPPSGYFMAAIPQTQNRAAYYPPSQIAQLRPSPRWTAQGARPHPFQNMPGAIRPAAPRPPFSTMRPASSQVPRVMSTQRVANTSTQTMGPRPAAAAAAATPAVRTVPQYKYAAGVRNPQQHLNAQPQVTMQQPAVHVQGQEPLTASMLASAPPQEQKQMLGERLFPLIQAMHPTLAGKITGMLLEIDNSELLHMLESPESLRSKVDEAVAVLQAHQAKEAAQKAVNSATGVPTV

[17] = target: T4, Polyadenylate-binding protein 1; test: MLLE domain peptide-binding blockers, IC50 – biochemical, fluorescence polarization, FITC-PAM2 peptide, dose response (AID 602259); type: functional; conditions: read-out: IC50_Mean
[18] = target: T5, Rac GTPase-activating protein 1 (Homo sapiens, UniProt Q9H0H5); test: blockers of MgcRacGAP-driven Rac1 GTP hydrolysis – biochemical, ADP Hunter fluorescence, primary and confirmatory, confirmation (AID 624330); type: functional
T5 sequence (Q9H0H5 whole entry): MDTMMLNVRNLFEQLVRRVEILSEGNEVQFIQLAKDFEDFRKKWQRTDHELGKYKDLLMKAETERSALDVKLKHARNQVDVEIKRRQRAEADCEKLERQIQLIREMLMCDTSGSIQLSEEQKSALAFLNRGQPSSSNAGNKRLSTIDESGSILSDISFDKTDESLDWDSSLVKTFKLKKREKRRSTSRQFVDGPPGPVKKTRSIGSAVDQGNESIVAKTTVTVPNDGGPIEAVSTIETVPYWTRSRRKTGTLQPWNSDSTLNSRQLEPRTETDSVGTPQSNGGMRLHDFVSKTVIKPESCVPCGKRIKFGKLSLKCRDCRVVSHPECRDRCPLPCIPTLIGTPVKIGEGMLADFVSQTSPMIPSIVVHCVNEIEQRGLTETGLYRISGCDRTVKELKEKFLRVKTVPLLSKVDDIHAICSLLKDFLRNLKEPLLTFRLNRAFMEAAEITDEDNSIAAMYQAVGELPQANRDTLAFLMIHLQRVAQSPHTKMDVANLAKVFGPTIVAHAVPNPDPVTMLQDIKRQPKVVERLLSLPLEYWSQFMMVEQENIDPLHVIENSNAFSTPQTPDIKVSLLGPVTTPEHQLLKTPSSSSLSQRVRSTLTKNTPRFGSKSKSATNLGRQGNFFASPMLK

[19] = target: T6, NAD-dependent protein deacylase sirtuin-5, mitochondrial (Homo sapiens, UniProt Q9NXA8); test: sirtuin-5 deacylation blockers, concentration series – biochemical, fluorescence imaging, cherry-pick, set 5, dose response (AID 720591);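 note: desuccinylation of succinyl peptide AMC substrate read as fluorescence after trypsin release; potency of inhibitors that lower fluorescence and may act on trypsin instead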
T6 sequence (Q9NXA8 whole entry): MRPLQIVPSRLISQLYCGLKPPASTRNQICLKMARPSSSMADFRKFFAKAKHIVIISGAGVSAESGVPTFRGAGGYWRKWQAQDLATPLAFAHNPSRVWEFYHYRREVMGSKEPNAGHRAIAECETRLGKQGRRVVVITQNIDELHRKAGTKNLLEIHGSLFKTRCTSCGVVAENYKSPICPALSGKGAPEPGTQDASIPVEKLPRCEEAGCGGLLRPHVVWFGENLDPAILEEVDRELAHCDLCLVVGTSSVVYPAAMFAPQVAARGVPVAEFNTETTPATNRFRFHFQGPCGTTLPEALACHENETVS

Phospholipase D2 = Phospholipase D2 (Homo sapiens, UniProt O14939); test: PLD2 Cellular Concentration Response Study.; type: functional
Chain of Phospholipase D2 (O14939 whole entry): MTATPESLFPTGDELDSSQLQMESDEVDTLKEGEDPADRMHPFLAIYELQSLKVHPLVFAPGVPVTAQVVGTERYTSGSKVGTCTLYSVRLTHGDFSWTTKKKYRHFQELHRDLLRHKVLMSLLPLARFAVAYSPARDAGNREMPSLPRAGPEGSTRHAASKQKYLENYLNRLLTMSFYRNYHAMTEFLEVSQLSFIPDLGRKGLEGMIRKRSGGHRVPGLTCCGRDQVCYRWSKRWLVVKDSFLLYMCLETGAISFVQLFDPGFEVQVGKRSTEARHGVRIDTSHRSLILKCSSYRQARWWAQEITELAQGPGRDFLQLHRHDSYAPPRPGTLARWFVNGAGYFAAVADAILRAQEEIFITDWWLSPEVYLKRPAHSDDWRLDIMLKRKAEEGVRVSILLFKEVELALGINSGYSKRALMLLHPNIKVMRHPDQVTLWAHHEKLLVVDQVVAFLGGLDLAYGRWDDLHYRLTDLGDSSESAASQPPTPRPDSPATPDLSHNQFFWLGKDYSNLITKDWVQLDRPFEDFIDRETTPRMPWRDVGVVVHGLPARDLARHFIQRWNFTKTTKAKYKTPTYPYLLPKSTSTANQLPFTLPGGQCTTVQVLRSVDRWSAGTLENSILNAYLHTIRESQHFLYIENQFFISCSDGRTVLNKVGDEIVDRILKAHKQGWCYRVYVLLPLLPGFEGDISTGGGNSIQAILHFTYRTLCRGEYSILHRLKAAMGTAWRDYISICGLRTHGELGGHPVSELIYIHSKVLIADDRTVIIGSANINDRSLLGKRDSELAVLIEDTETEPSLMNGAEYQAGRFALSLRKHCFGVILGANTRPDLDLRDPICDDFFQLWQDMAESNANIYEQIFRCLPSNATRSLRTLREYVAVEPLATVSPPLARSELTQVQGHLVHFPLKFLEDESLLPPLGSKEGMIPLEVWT

Phospholipase D1 = Phospholipase D1 (Homo sapiens, UniProt Q13393); test: PLD1 Cellular Concentration Response Study.; type: functional
Chain of Phospholipase D1 (Q13393 whole entry): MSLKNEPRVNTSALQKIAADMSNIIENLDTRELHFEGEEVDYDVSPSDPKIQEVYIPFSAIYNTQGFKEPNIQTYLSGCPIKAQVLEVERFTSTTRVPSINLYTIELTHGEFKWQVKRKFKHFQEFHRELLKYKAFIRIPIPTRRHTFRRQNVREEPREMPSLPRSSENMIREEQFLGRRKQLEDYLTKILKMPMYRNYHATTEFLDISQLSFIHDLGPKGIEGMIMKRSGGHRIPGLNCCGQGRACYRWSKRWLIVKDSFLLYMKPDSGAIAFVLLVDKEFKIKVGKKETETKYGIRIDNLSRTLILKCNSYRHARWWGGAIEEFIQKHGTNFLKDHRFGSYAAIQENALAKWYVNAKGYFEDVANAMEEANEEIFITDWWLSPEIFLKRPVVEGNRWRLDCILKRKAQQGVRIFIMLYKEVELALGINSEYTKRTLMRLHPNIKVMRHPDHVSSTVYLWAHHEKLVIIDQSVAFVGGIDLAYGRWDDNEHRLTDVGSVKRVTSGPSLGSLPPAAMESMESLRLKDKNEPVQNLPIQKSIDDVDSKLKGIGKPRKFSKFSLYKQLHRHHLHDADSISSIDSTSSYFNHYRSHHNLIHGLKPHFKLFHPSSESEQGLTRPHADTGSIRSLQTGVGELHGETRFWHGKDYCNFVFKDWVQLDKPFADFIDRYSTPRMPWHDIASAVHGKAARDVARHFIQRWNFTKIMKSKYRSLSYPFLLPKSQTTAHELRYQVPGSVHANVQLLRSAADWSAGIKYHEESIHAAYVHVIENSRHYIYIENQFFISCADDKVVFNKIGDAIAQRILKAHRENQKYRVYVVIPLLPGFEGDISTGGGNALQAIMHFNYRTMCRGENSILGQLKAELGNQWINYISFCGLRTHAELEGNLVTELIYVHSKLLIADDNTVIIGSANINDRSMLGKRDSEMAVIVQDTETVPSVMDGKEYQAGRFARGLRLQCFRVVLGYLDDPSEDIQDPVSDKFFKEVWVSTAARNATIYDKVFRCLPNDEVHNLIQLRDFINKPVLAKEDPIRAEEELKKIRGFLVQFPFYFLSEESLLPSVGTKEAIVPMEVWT

[20] = viability loss in Vero cells – cytotoxicity control for Vif-APOBEC3G degradation inhibitor project, dose response (AID 1117358); type: functional; conditions: Vero
[21] = target: T7, Calpain-2 catalytic subunit (Sus scrofa, UniProt P43367); test: m-calpain protease blockers, concentration series – biochemical, fluorogenic peptide substrate, dose response (AID 1420); type: functional
T7 sequence (P43367 whole entry): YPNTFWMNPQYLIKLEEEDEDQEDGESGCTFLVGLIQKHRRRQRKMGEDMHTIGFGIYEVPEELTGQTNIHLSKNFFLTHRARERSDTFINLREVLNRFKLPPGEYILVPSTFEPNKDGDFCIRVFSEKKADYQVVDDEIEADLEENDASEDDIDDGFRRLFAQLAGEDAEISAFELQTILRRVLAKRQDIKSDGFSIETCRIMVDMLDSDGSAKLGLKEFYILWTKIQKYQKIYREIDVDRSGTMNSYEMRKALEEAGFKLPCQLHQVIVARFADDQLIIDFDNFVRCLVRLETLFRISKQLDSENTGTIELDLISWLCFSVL

[22] = toxicity to human hepatoma HepG2 cells – cell-based, cherry-picked samples, cytotoxicity control, dose response (AID 1159577); type: functional
[23] = target: T8, Low molecular weight phosphotyrosine protein phosphatase (Homo sapiens, UniProt P24666); test: inhibition of human LMPTP enzyme activity – biochemical, absorbance, pNPP substrate, LMPTP-A isoform, set 2, orthogonal assay, dose response (AID 743308); type: functional
T8 sequence (P24666 whole entry): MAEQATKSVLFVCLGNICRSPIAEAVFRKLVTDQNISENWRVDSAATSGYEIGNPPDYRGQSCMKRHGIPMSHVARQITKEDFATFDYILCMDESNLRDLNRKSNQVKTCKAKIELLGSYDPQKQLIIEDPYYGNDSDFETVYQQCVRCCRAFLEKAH

[24] = target: T8, Low molecular weight phosphotyrosine protein phosphatase; test: inhibition of LMPTP-A enzymatic activity – biochemical, OMFP substrate, fluorescence intensity, set 2, dose response (AID 743307); type: functional
[25] = target: T6, NAD-dependent protein deacylase sirtuin-5, mitochondrial; test: blockers of sirtuin-5 peptide desuccinylation – biochemical, fluorescence imaging, cherry-pick, set 6, dose response (AID 720597)

In the case of `CCCCCCCCCCCCCCNCCO`, the IC50 [1] is reported as > 20 µM (inactive) and the IC50 [2] is reported as 13.6 µM (inactive).

For `O=C(/C=C/c1ccc(F)cc1)N1CCN(S(=O)(=O)c2ccc(Cl)cc2)CC1`, the IC50 [3] was 0.00548 µM (active).

For `O=C(c1ccccc1F)N1CC(=O)N2[C@H](C1)[C@@H](c1ccc(-c3cccnc3)cc1)[C@@H]2CO`, the AC50 [4] was < 0.3 µM (active), the AC50 [5] was 0.00824 µM (active) and the AC50 [6] was 0.0369 µM (active). For the same compound, the AC50 [7] was 0.0146 µM (active) and the AC50 [8] was 0.0331 µM (active).

In the case of `CCOC(=O)c1cnc2c(ccc3ccccc32)c1NCCCN(C)C`, the IC50 [9] is reported as > 67.5 µM (inactive), the IC50 (HEK293) is reported as > 67.5 µM (inactive) and the AC50 [10] is reported as 3.38 µM (active). For the same compound, the AC50 [11] was 1.38 µM (active), the IC50 [12] was 35.7 µM (inactive) and the CC50 (Vero) was > 100 µM (active).

With `COc1ccc2c3c(cccc13)N(C)N=C2C` the IC50 [13] was 1.33 µM (active), the IC50 [14] was > 20 µM (inactive) and the IC50 [15] was 36.6 µM (active). For the same compound, the IC50 [16] was > 66 µM (inactive), the IC50 [17] was > 66 µM (inactive) and the IC50 [18] was 34.4 µM (active).

With `CC(C)C[C@H](NS(=O)(=O)c1ccc(F)cc1F)C(=O)N1CCC[C@H]1C(=O)NCc1ccccc1` the AC50 [19] was 15.3 µM (active).

In the case of `O=C(NCCN1CCC2(CC1)C(=O)NCN2Cc1ccccc1F)c1ccc2ccccc2c1`, the IC50 (Phospholipase D2) is reported as 0.2 µM (active) and the IC50 (Phospholipase D1) is reported as 4.59 µM (active).

In the case of `Cc1cc(-c2ccccc2)nc(Oc2ccc(C(C)(C)C)cc2)c1S(C)(=O)=O`, the CC50 [20] is reported as > 40 µM (active) and the IC50 [21] is reported as > 50 µM (not active).

For `N#C[C@@H]1[C@H](c2ccc(C#Cc3ccccc3F)cc2)[C@H](CO)N1C(=O)C1CCCC1`, the AC50 [4] was 3.48 µM (active) and the AC50 [22] was > 39 µM (inactive).

For `CC(C)Nc1nc(-c2ccccc2)nc2ccccc12`, the IC50 [23] was 35.8 µM (inactive) and the IC50 [24] was 15 µM (active).

With `O=C(O)CCNc1ncnc2ccccc12` the AC50 [25] was > 30 µM (inactive).
